PMC8409151, “GT198 Is a Target of Oncology Drugs and Anticancer Herbs” (Frontiers in Oral Health, 2021)
Values joined by “and” are separate entries in the source; they are usually repeats but may differ in a detail not shown here. Equal values may be shown once. Read-outs that look alike come from different tables or passages of the source. *1 amine or outer side, *2 acyl side, *3 side chain or, on linkers, in order; H or OH if unused. Where a SMILES comes first, the peptide text is derived from it. Bridges are numbered along the chain shown (N, C = ends). Roman numbers before positions name the chains, in order. [ ]: non-standard residue; d: D form. Actinocin(9to1) = Cc1c2oc3c(C)ccc(C(=O)[*:1])c3nc-2c(C(=O)[*:2])c(N)c1=O; NMeV = CN[C@H](C(=O)O)C(C)C; Sar = CNCC(=O)O

What was measured:
[1] = biological target: T1, GT198 (Homo sapiens, UniProt Q9P2W1); assay: In vitro DNA-binding assay of GT198 (biotinylated DNA, chemiluminescence); set-up: Efficacy: dose or concentration left out as unconfirmed; settings: for Activity: NCI Approved Oncology Drug Set VII; for inhibition at 2 µM: read-out: Efficacy; for Efficacy: percent of inhibition of drugs
T1 sequence (Q9P2W1 1-180): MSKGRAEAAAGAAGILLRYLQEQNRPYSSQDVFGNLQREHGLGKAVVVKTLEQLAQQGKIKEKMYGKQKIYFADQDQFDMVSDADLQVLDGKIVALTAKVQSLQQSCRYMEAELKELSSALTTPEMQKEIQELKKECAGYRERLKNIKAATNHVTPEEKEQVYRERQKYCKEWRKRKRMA
Description: (§1) In order to measure GT198 activity in vitro for direct inhibition, a DNA-binding assay was developed in which recombinant GT198 proteins are coated on 96-well plates and assayed for the binding of biotin-labeled DNA in the presence of drug inhibitors. […] N-terminal His-tagged recombinant human GT198 protein without its C-terminus (aa 1–180) were expressed in E. coli BL21 (DE3) pLysS and purified through Ni-NTA-agarose (Qiagen) as previously described [33]. Proteins were eluted by 200 mM imidazole, desalted, concentrated using Amicon YM-10 spin columns, and stored at −80°C before use. Protein concentrations were determined using protein assay dye reagent concentrate solution (Bio-Rad) and 2 mg/ml bovine serum albumin (BSA) standard (Sigma).
(§2) A single-stranded 25-mer biotin-oligonucleotide (Biotin)-[sequence] was used in the assay because it is sufficient to bind one GT198 dimer. […] BSA alone was included as a control for background. No subtraction of background was needed due to very low background. Duplicated wells were used for each experimental point. Each experiment was repeated three times. The GT198-coated plates were blocked with 5% BSA in a solution containing PBS with 0.1% Triton X-100 (TPBS) for 1 h. The binding was carried out for 4 h to overnight at 4°C using 150 nM Biotin-DNA and serial diluted drugs (0.128, 0.64, 3.2, 16, 80, 400, 2,000, 10,000 nM) or herb extracts (0, 0.0384, 0.192, 0.96, 4.8, 24, 120, 600 ng/μl) in the binding buffer (20 mM TrisHCl, pH 7.5, 50 mM NaCl, 75 mM KCl, 0.5 mM MgCl2, 0.05% Triton X-100, 10% glycerol, 1 mM dithiothreitol). After binding, the plates were washed three times with TPBS solution for total 45 min. The plates were then incubated with streptavidin-conjugated HRP (Roche Molecular Biochemicals, #1089153) at 1 U/ml in TPBS for 1 h at 4°C and further washed three times with TPBS for total 30 min. […] Reading of plates was repeated three times within 45 min, and usually the second reading yielded the most consistent results. The finished plates were stained with Bio-Rad protein assay dye reagent to evaluate the bound GT198 protein on the plates.
(§3) The IC50 values were calculated through Kaleidagraph software (Synergy Software) using nonlinear regression sigmoidal dose-response curve fit. The equation for calculation is y = m1 + (m2 – m1)/[1 + (x /m3)^m4], where m1 is the minimum, m2 is the maximum, m3 is the IC50 value calculated by Kaleidagraph, and m4 is the slope at midpoint of the curve. The analysis of Vmax and Km in competitive binding assays were carried out in double-reciprocal plots, using means of four high-concentration data points, omitting points at lower concentrations with reciprocal values off-scale. […] Double-reciprocal plots reveal competitive binding as constant Vmax with increased Km in the presence of drugs or allosteric binding with reduced Vmax and constant Km in the presence of drugs.

[2] = biological target: T1, GT198; assay: biochemical
Description: as §1, §2, §3

[3] = biological target: T1, GT198; set-up: this study used a C-terminal truncated version of GT198 (aa 1–180) to ensure high sensitivity of the assay; His tag (N); made in house; host or cells: E. coli BL21 (DE3) pLysS; method as in doi:10.1101/675579; settings: separate study ref 45; cited from earlier work
[4] = biological target: T2, GT198 (Hop2), C-terminally truncated (human, UniProt Q9P2W1 1-180, del181-217); assay: plate binding assay (immobilized protein, streptavidin-HRP chemiluminescence); EC50; no drug; 20 mM Tris-HCl pH 7.5, 50 mM NaCl, 75 mM KCl, 0.5 mM MgCl2, 0.05% Triton X-100, 10% glycerol, 1 mM DTT; 4 C, 4 h to overnight; 400 ng/well GT198 plus 5 ug BSA; settings: protein: recombinant; tags: N-terminal His; chain copies: 2; label: biotin
T2 sequence: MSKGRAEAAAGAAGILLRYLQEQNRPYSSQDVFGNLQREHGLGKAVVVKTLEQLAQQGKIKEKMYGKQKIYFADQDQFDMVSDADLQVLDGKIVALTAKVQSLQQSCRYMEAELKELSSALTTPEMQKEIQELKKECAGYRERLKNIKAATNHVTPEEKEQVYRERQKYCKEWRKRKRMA

[5] = Table 1, drugs not measured with IC50 are shown as active or inactive
[6] = IC50, figures 2, 3, 150 nM DNA, sigmoidal curve fit, ND = not detectable

Molecule | GT198 inhibition (in words) [1] | Efficacy (active or inactive) [1, 5] | IC50 [2] [nM] | inhibition at 2 µM [1] [%] | other results
NCC(=O)CCC(=O)O [Aminolevulinic acid] | positive inhibitors | Active | – | – | Activity ([1]; Supplementary Table 1): +
CO[C@H]1C(=O)[C@]2(C)[C@@H](OC)C[C@H]3OC[C@@]3(OC(C)=O)[C@H]2[C@H](OC(=O)c2ccccc2)[C@]2(O)C[C@H](OC(=O)[C@H](O)[C@@H](NC(=O)OC(C)(C)C)c3ccccc3)C(C)=C1C2(C)C [Cabazitaxel] | – | Inactive | – | – | –
CC[C@@]1(O)C(=O)OCc2c1cc1n(c2=O)Cc2cc3ccccc3nc2-1 [Camptothecin] | very poor affinities or fail to inhibit GT198 | – | 2060 | 30 | –
N.N.O=C([O-])C1(C(=O)[O-])CCC1.[Pt+2] [Carboplatin] | does not inhibit GT198 | Inactive | – | – | IC50 ([1]; Supplementary Table 1): > 2000 nM; Efficacy ([1]; Supplementary Table 1): 0%
CC(C)C[C@H](NC(=O)[C@H](CCc1ccccc1)NC(=O)CN1CCOCC1)C(=O)N[C@@H](Cc1ccccc1)C(=O)N[C@@H](CC(C)C)C(=O)[C@@]1(C)CO1 [Carfilzomib] | positive inhibitors | Active | – | – | –
CC1=C(O)C(=O)C=C2C1=CC=C1[C@@]2(C)CC[C@@]2(C)[C@@H]3C[C@](C)(C(=O)O)CC[C@]3(C)CC[C@]12C [Celastrol] | positive | – | – | 30 | IC50 ([1]; IC50): 350 nM
N.N.[Cl][Pt][Cl] [Cisplatin] | – | Inactive | – | – | –
Cc1c2oc3c(C)ccc(C(=O)N[C@@H]4C(=O)N[C@H](C(C)C)C(=O)N5CCC[C@H]5C(=O)N(C)CC(=O)N(C)[C@@H](C(C)C)C(=O)O[C@@H]4C)c3nc-2c(C(=O)N[C@@H]2C(=O)N[C@H](C(C)C)C(=O)N3CCC[C@H]3C(=O)N(C)CC(=O)N(C)[C@@H](C(C)C)C(=O)O[C@@H]2C)c(N)c1=O [Dactinomycin] (I: T[dV]P[Sar][NMeV] / II: T[dV]P[Sar][NMeV]; ester I:1-I:C, II:1-II:C; linker I:N-II:N via Actinocin(9to1)) | positive inhibitors | – | – | – | Efficacy (active or inactive) [1]: Active
COc1cccc2c1C(=O)c1c(O)c3c(c(O)c1C2=O)C[C@@](O)(C(C)=O)C[C@@H]3O[C@H]1C[C@H](N)[C@H](O)[C@H](C)O1 [Daunorubicin] | – | – | 149 | 48 | IC50 [1, 6]: 150 nM
CC(=O)O[C@@]12CO[C@@H]1C[C@H](O)[C@@]1(C)C(=O)[C@H](O)C3=C(C)[C@@H](OC(=O)[C@H](O)[C@@H](NC(=O)OC(C)(C)C)c4ccccc4)C[C@@](O)([C@@H](OC(=O)c4ccccc4)[C@H]21)C3(C)C [Docetaxel] | GT198 inhibitors | Active | – | – | –
COc1cccc2c1C(=O)c1c(O)c3c(c(O)c1C2=O)C[C@@](O)(C(=O)CO)C[C@@H]3O[C@H]1C[C@H](N)[C@@H](O)[C@H](C)O1 [Epirubicin] | – | – | – | – | IC50 ([1]; IC50): 750 nM and 749 nM
COc1cc([C@@H]2c3cc4c(cc3[C@@H](O[C@@H]3O[C@@H]5CO[C@@H](C)O[C@H]5[C@H](O)[C@H]3O)[C@H]3COC(=O)[C@H]23)OCO4)cc(OC)c1O [Etoposide] | GT198 inhibitors | – | 24 | 42 | IC50 [1, 6]: 24.2 nM
CC(=O)[C@]1(O)Cc2c(O)c3c(c(O)c2[C@@H](O[C@H]2C[C@H](N)[C@H](O)[C@H](C)O2)C1)C(=O)c1ccccc1C3=O [Idarubicin] | – | – | 362 | 56 | IC50 [1, 6]: 362 nM
CCc1c2c(nc3ccc(OC(=O)N4CCC(N5CCCCC5)CC4)cc13)-c1cc3c(c(=O)n1C2)COC(=O)[C@]3(O)CC [Irinotecan] | very poor affinities or fail to inhibit GT198 | – | > 2000 | 10 | –
CN(Cc1cnc2nc(N)nc(N)c2n1)c1ccc(C(=O)N[C@@H](CCC(=O)O)C(=O)O)cc1 [Methotrexate] | negatives | – | – | – | –
O=C1c2c(O)ccc(O)c2C(=O)c2c(NCCNCCO)ccc(NCCNCCO)c21 [Mitoxantrone] | almost complete inhibition | – | 187 | 90 | IC50 [1, 6]: 187 nM; Activity ([1]; Supplementary Table 1): +; Efficacy ([1]; Supplementary Table 1): 90%
CC(=O)O[C@H]1C(=O)[C@@]2(C)[C@H]([C@H](OC(=O)c3ccccc3)[C@]3(O)C[C@H](OC(=O)[C@H](O)[C@@H](NC(=O)c4ccccc4)c4ccccc4)C(C)=C1C3(C)C)[C@]1(OC(C)=O)CO[C@@H]1C[C@@H]2O [Paclitaxel] | GT198 inhibitors | – | 5 | 32 | Mode of inhibition [3]: allosteric inhibitor or noncompetitive inhibitor
CO[C@H]1C[C@@H]2CC[C@@H](C)[C@@](O)(O2)C(=O)C(=O)N2CCCC[C@H]2C(=O)O[C@H]([C@H](C)C[C@@H]2CC[C@@H](O)[C@H](OC)C2)CC(=O)[C@H](C)/C=C(\C)[C@@H](O)[C@@H](OC)C(=O)[C@H](C)C[C@H](C)/C=C/C=C/C=C/1C [Sirolimus] | positive inhibitors | Active | – | – | –
CCN(CC)CCNC(=O)c1c(C)[nH]c(/C=C2\C(=O)Nc3ccc(F)cc32)c1C [Sunitinib] | positive inhibitors | Active | – | – | Activity ([1]; Supplementary Table 1): +
COc1cc([C@@H]2c3cc4c(cc3[C@@H](O[C@@H]3O[C@@H]5CO[C@@H](c6cccs6)O[C@H]5[C@H](O)[C@H]3O)[C@H]3COC(=O)[C@H]23)OCO4)cc(OC)c1O [Teniposide] | GT198 inhibitors | Active | – | – | –
CC[C@@]1(O)C(=O)OCc2c1cc1n(c2=O)Cc2cc3c(CN(C)C)c(O)ccc3nc2-1 [Topotecan] | very poor affinities or fail to inhibit GT198 | – | > 2000 | 4 | Efficacy ([1]; Supplementary Table 1): 4%
O=c1[nH]c(=O)n([C@H]2C[C@H](O)[C@@H](CO)O2)cc1C(F)(F)F [Trifluridine] | positive inhibitors | Active | – | – | Activity ([1]; Supplementary Table 1): +
CCCCC(=O)OCC(=O)[C@]1(O)Cc2c(O)c3c(c(O)c2[C@@H](O[C@H]2C[C@H](NC(=O)C(F)(F)F)[C@H](O)[C@H](C)O2)C1)C(=O)c1c(OC)cccc1C3=O [Valrubicin] | – | – | 973 | 26 | IC50 [1, 6]: 973 nM
CC[C@]1(O)C[C@H]2CN(CCc3c([nH]c4ccccc34)[C@@](C(=O)OC)(c3cc4c(cc3OC)N(C=O)[C@H]3[C@@](O)(C(=O)OC)[C@H](OC(C)=O)[C@]5(CC)C=CCN6CC[C@]43[C@@H]65)C2)C1 [Vincristine] | negatives | Inactive | – | – | –
CCTGGGGTTGCTGAGGTCCTGGCAG (ssDNA, biotin before the first printed base (5')) [biotin 25-mer ssDNA] | – | – | – | – | apparent K (half saturation) [4]: 43 nM
